Measurements as given in PMC5494547 (2015).

Columns and labels:
[1] = system: MBA1 (DNA, aptamer) TACACTGGGGAGTATTGCGGAGGAAGTGTA; assay: circular dichroism; conditions: 1 µM MBA1, 50 mM ATP; quadruplex bands at 265 and 295 nm
[2] = system: MBA3 (DNA, aptamer) GCGCGCGGGGAGTATTGCGGAGGAGCGCGC; assay: circular dichroism; conditions: CD unchanged by PPFP-Br; tighter folded G-quadruplex than ATP/MBA1

binding [1]: yes | binding [2]: yes
SMILES: Nc1ncnc2c1ncn2[C@@H]1O[C@H](COP(=O)(O)OP(=O)(O)OP(=O)(O)O)[C@@H](O)[C@H]1O
